Read-outs that look alike come from different tables or passages of the source. Marks after values point to notes of the source that are not given here. Bridge positions count the residues as written; N and C are the ends. Ends that are not written are not given here. I, II: the chains in the order shown.
Key:
rat mast cells [1] = conditions: peptide at 10 μM; ref Shigeri et al. [24]; cited from earlier work
Procedure: Table 3 Biological properties of O. monticola pilosulin-like peptides. | column: Histamine-Releasing Activity at 10 μM (%)

[2] = peptide at 10 μM; ref Shigeri et al. [24]; cited from earlier work
Procedure: Table 3 Biological properties of O. monticola pilosulin-like peptides. | column: Hemolytic Activity (%) / at 10 μM

rat mast cells [3] = experiment: Histamine-releasing activity; type: cell-based; conditions: peptide at 10 μM
Procedure: (§1) Pilosulin-like peptides 1–6 were prepared using Fmoc chemistry by GenScript (Nanjing, Jiangsu, China). The peptides were purified by RP-HPLC with a preparative C18 column. The purity and molecular weight of the final peptides were verified by HPLC and MS. Antimicrobial, hemolytic, and histamine-releasing activities were measured as described previously.

[4] = tested on: S. cerevisiae (NBRC 10217); type: cell-based, Saccharomyces cerevisiae; conditions: minimum inhibitory concentration; synthetic peptides; method as described previously [6]
From the text: (§2) Pilosulin-like peptides 1–6 were chemically synthesized by the 9-fluorenylmethyloxycarbonyl (Fmoc) method, and we examined their biological activities (Table 3). We synthesized homodimeric pilosulin-like peptide 4, which was linked by a single disulfide bond. […] These activities were higher than those of magainin, a well-known Xenopus laevis antimicrobial peptide. […] The cysteine residue of pilosulin-like peptide 4 may be important for antifungal activity.
as §1

E. coli (NBRC 14237) = type: cell-based, Escherichia coli; conditions: minimum inhibitory concentration; synthetic peptides; method as described previously [6]
From the text: as §2, §1

Hemolytic activity = type: cell-based; conditions: for Hemolytic Activity (%) at 10 μM: peptide at 10 μM; for Hemolytic Activity (%) at 50 μM: peptide at 50 μM
Procedure: as §1

S. aureus (NBRC 12732) = type: cell-based, Staphylococcus aureus; conditions: minimum inhibitory concentration; synthetic peptides; method as described previously [6]
From the text: as §2, §1

| Substance | Histamine-Releasing Activity at 10 μM (%) (rat mast cells [1]) | Hemolytic Activity (%) at 10 μM [2] | Histamine-Releasing Activity at 10 μM (%) (rat mast cells [3]) | Histamine-Releasing Activity at 10 μM (%) (rat mast cells [3]; listed as Pilosulin-like peptide 4) | MIC, S. cerevisiae (NBRC 10217) [4] | MIC, E. coli (NBRC 14237) (E. coli (NBRC 14237)) [µM] | Hemolytic Activity (%) at 10 μM (Hemolytic activity) | Hemolytic Activity (%) at 50 μM (Hemolytic activity) | MIC, S. aureus (NBRC 12732) (S. aureus (NBRC 12732)) [µM] |
| --- | --- | --- | --- | --- | --- | --- | --- | --- | --- |
| Mastoparan | 31.1 ^b % | 13.5 ^b % |  |  |  |  |  |  |  |
| I: GVKELFGKAWGLVKKHLPKACGLLGYVKQ-OH / II: GVKELFGKAWGLVKKHLPKACGLLGYVKQ-OH (disulfide I:21-II:21) [PLP4] |  |  | 66.4 | comparable to that of melittin | <3.1 µM | <3.1 | Negative | 10.5% | <3.1 |
| IWGALLGTLIPAITSAIQ-NH2 [PLP5] |  |  |  |  |  | <50 | 6.9% | 94.8% |  |
| GWGSIFKTVGKMIAKAAVKAAPEAISAMASQNE [PLP2] |  |  |  |  | <50 µM | <6.2 | Negative | 10.4% | <6.2 |
| Melittin: a honey bee hemolytic peptide | 64.3 ^b % | 100.0 ^b % |  |  |  |  |  |  |  |
| IKGKKIMKNMGKAMKIAGKVAKAMAPIVVPLIVSAA-NH2 [PLP6] |  |  |  |  |  | <3.1 | Negative | Negative | <3.1 |
| GILDWGKKVMDWIKDKM-NH2 [PLP1] |  |  |  |  | <50 µM | <3.1 | Negative | Negative | <3.1 |
| Magainin [reference compound] |  |  |  |  | Negative | <12.5 |  |  | <25 |
| KIKWGKIFKKGGKLIGKTALEAAANAAASEAISAMASQNE [PLP3] |  |  |  |  | <50 µM | <3.1 | Negative | Negative | <25 |

Reference: article PMC6356579, “Mass Spectrometry Analysis and Biological Characterization of the Predatory Ant Odontomachus monticola Venom and Venom Sac Components” (Toxins, 2019)
